Experimental data from article PMC6301270 (MedChemComm, 2018).

These compounds were tested on T.b. brucei (strain 427) bloodstream form parasites (assay: T.b. brucei single concentration screen (10 μM)). Details: Trypanosoma brucei, read-out: T.b.brucei % viability (10 µM).
`C[C@H](C(N)=O)N1CCCC[C@@H]1c1ccc(OCc2cccc(F)c2)cc1` [MMV676270, C[C@@H](N1CCCC[C@@H]1c2ccc(OCc3cccc(F)c3)cc2)C(=O)N] was tested, and the viability at 10 µM was 97%.
`Cc1cnc(CCNC(=O)c2cc(-c3ccc(Cl)cc3)cs2)[nH]1` [MMV676350, Cc1cnc(CCNC(=O)c2cc(cs2)c3ccc(Cl)cc3)[nH]1] was tested, and the viability at 10 µM was 47%.
With `Nc1ncc(Br)cc1-c1nc2cc(Cl)cnc2[nH]1` [MMV676358, Nc1ncc(Br)cc1c2nc3cc(Cl)cnc3[nH]2] the viability at 10 µM was 98%.
`Brc1c(-c2ccc3c(c2)OCO3)nc2ncccn12` [MMV676377, Brc1c(nc2ncccn12)c3ccc4OCOc4c3] was tested, and the viability at 10 µM was 96%.
`COc1cccc(OCC(=O)c2ccc(Br)cc2)c1` [MMV676379, COc1cccc(OCC(=O)c2ccc(Br)cc2)c1] gave a viability at 10 µM of 104%.
`CC(=O)Nc1ccc(NC(=O)c2cc(-c3cc(Cl)ccc3O)[nH]n2)cc1` [MMV676380, CC(=O)Nc1ccc(NC(=O)c2cc([nH]n2)c3cc(Cl)ccc3O)cc1] gave a viability at 10 µM of 78%.
In the case of `Cn1ncc2c(N3CCOCC3)nc(NCCc3c[nH]c4ccccc34)nc21` [MMV676382, Cn1ncc2c(nc(NCCc3c[nH]c4ccccc34)nc12)N1CCOCC1], the viability at 10 µM was 93%.
In the case of `CCC(Sc1nc2ccccc2o1)C(=O)Nc1nccs1` (stereo not shown) [MMV676383, CCC(Sc1oc2ccccc2n1)C(=O)Nc3nccs3], the viability at 10 µM was 86%.
In the case of `N#Cc1nc(-c2ccccc2F)oc1NCCc1ccccc1` [MMV676384, Fc1ccccc1c2oc(NCCc3ccccc3)c(n2)C#N], the viability at 10 µM was 107%.
In the case of `Cc1cccc(Cn2ccc(NC(=O)c3ccc4c(c3)OCO4)n2)c1` [MMV676386, Cc1cccc(Cn2ccc(NC(=O)c3ccc4OCOc4c3)n2)c1], the viability at 10 µM was 95%.
Work on `COc1cccc(-n2nnnc2S(=O)(=O)Cc2ccccc2)c1` [MMV676388, COc1cccc(c1)n2nnnc2S(=O)(=O)Cc3ccccc3] yielded a viability at 10 µM of 87%.
`O=C(c1[nH]nc2c1CCCC2)N1CCN(Cc2ccc3c(c2)OCO3)CC1` [MMV676389, O=C(N1CCN(Cc2ccc3OCOc3c2)CC1)c4[nH]nc5CCCCc45] gave a viability at 10 µM of 95%.
Compound `O=C(Nc1cccnc1)c1c(O)c2cccc3c2n(c1=O)CC3` [MMV676395, OC1=C(C(=O)Nc2cccnc2)C(=O)N3CCc4cccc1c34] has a viability at 10 µM of 106%.
`CCS(=O)(=O)N(Cc1ccco1)Cc1cc2ccc(C)cc2nc1O` [MMV676398, CCS(=O)(=O)N(Cc1occc1)Cc2cc3ccc(C)cc3nc2O] showed a viability at 10 µM of 86%.
Compound `c1coc(CNc2nc(N3CCCCC3)nc3ccccc23)c1` [MMV676401, C(Nc1nc(nc2ccccc12)N3CCCCC3)c4occc4] has a viability at 10 µM of 58%.
Compound `CC(C)n1ncc2c(C(=O)NCC(c3cccs3)N3CCOCC3)cc(-c3ccccc3)nc21` (stereo not shown) [MMV676406, CC(C)n1ncc2c(cc(nc12)c3ccccc3)C(=O)NCC(N4CCOCC4)c5cccs5] has a viability at 10 µM of 61%.
With `N#Cc1nc(-c2ccccc2)oc1S(=O)(=O)c1ccc(Cl)cc1` [MMV676412, Clc1ccc(cc1)S(=O)(=O)c2oc(nc2C#N)c3ccccc3] the viability at 10 µM was 28%.
In the case of `Cc1ccc(NC(=O)CC2COc3ccccc3O2)cc1Cl` (stereo not shown) [MMV676431, Cc1ccc(NC(=O)CC2COc3ccccc3O2)cc1Cl], the viability at 10 µM was 77%.
For `Cc1ccc2nc(Cl)c(CNCc3cccs3)cc2c1` [MMV676439, Cc1ccc2nc(Cl)c(CNCc3cccs3)cc2c1], the viability at 10 µM was 99%.
Compound `CC(C)c1ncc(-c2ccncc2)c([C@H]2CC[C@H](CNC(=O)c3cccnc3)CC2)n1` [MMV676442, CC(C)c1ncc(c2ccncc2)c(n1)[C@@H]3CC[C@@H](CNC(=O)c4cccnc4)CC3] has a viability at 10 µM of 103%.
`O=C(NC1CCCCC1)N1CCN(Cc2ccc3c(c2)OCO3)CC1` [MMV676444, O=C(NC1CCCCC1)N2CCN(Cc3ccc4OCOc4c3)CC2] was tested, and the viability at 10 µM was 109%.
`CCCn1c(CNc2ccccc2O)nc2ccccc21` [MMV676445, CCCn1c(CNc2ccccc2O)nc3ccccc13] was tested, and the viability at 10 µM was 109%.
`CCc1nc2ccccc2n1CC(O)COc1cc(C)ccc1Cl` (stereo not shown) [MMV676449, CCc1nc2ccccc2n1CC(O)COc3cc(C)ccc3Cl] gave a viability at 10 µM of 83%.
`CCOC(=O)c1cc(-c2csc(Nc3c(C)cc(C)cc3C)n2)on1` [MMV676461, CCOC(=O)c1cc(on1)c2csc(Nc3c(C)cc(C)cc3C)n2] was tested, and the viability at 10 µM was 102%.
In the case of `CCOc1ccc(OCC(=O)Nc2cc(C)cc(C)c2)cc1` [MMV676470, CCOc1ccc(OCC(=O)Nc2cc(C)cc(C)c2)cc1], the viability at 10 µM was 75%.
Compound `COc1cccc(OC)c1C(=O)Nc1ccc(Cl)c(-c2nc3ccccc3s2)c1` [MMV676472, COc1cccc(OC)c1C(=O)Nc2ccc(Cl)c(c2)c3nc4ccccc4s3] has a viability at 10 µM of 100%.
For `COc1ccccc1OCCCCn1c(C2CC2)nc2ccccc21` [MMV676474, COc1ccccc1OCCCCn2c(nc3ccccc23)C4CC4], the viability at 10 µM was 93%.
`Cc1cc(C)cc(COc2ccc3c(C)c(CCC(=O)O)c(=O)oc3c2C)c1` [MMV676476, CC1=C(CCC(=O)O)C(=O)Oc2c(C)c(OCc3cc(C)cc(C)c3)ccc12] was tested, and the viability at 10 µM was 94%.
For `COC(=O)c1c(NC(=O)c2cc3ccccc3oc2=O)sc2c1CCN(Cc1ccccc1)C2` [MMV676480, COC(=O)c1c2CCN(Cc3ccccc3)Cc2sc1NC(=O)C4=Cc5ccccc5OC4=O], the viability at 10 µM was 101%.
Compound `O=C(Nc1nnc(S)s1)c1cc(Br)ccc1Cl` [MMV676492, Sc1nnc(NC(=O)c2cc(Br)ccc2Cl)s1] has a viability at 10 µM of 106%.
`O=C(Nc1nnc(-c2ccc(Cl)s2)o1)c1ccc(Cl)s1` [MMV676501, Clc1ccc(s1)C(=O)Nc2oc(nn2)c3ccc(Cl)s3] was tested, and the viability at 10 µM was 93%.
Compound `Cc1ccc2oc(-c3cc(NC(=O)Cc4ccccc4)ccc3Cl)nc2c1` [MMV676509, Cc1ccc2oc(nc2c1)c3cc(NC(=O)Cc4ccccc4)ccc3Cl] has a viability at 10 µM of 99%.
With `O=C(c1cc2ccccc2o1)N1CCN(Cc2ccc3c(c2)OCO3)CC1` [MMV676520, O=C(N1CCN(Cc2ccc3OCOc3c2)CC1)c4oc5ccccc5c4] the viability at 10 µM was 97%.
`Nc1cccnc1Nc1ccc(Cl)cc1` [MMV676524, Nc1cccnc1Nc2ccc(Cl)cc2] gave a viability at 10 µM of 110%.
With `COc1ccc(-c2cc(NC(=O)c3ccc(F)cc3Cl)ccc2OC)cc1` [MMV676526, COc1ccc(cc1)c2cc(NC(=O)c3ccc(F)cc3Cl)ccc2OC] the viability at 10 µM was 93%.
For `Cc1cccc(NC(=O)c2cc(S(=O)(=O)N(C)c3ccc(F)cc3)ccc2Cl)n1` [MMV676528, CN(c1ccc(F)cc1)S(=O)(=O)c2ccc(Cl)c(c2)C(=O)Nc3cccc(C)n3], the viability at 10 µM was 96%.
With `COCC(C)NC(=O)CSc1ncnc2sc(-c3ccccc3)cc12` (stereo not shown) [MMV676536, COCC(C)NC(=O)CSc1ncnc2sc(cc12)-c1ccccc1] the viability at 10 µM was 97%.
For `O=C(NCCc1c[nH]c2ccccc12)c1cc2ccccc2oc1=O` [MMV676539, O=C(NCCc1c[nH]c2ccccc12)C3=Cc4ccccc4OC3=O], the viability at 10 µM was 83%.
`COc1ccc(Nc2ccccc2NC(=O)c2ccc(O)nc2)cc1` [MMV676554, COc1ccc(Nc2ccccc2NC(=O)c3ccc(O)nc3)cc1] gave a viability at 10 µM of 115%.
Work on `Cc1nnc(NCc2cccc(Cl)c2)c2ccccc12` [MMV676555, Cc1nnc(NCc2cccc(Cl)c2)c3ccccc13] yielded a viability at 10 µM of 97%.
`CC1=NN(c2nc3ccccc3s2)C(=O)C1Cc1cccc2ccccc12` (stereo not shown) [MMV676558, CC1=NN(C(=O)C1Cc2cccc3ccccc23)c4nc5ccccc5s4] was tested, and the viability at 10 µM was 45%.
`COc1ccc(-c2nc(-c3cccc(NC(=O)Cc4ccc(F)cc4)c3)no2)cc1OC` [MMV676571, COc1ccc(cc1OC)c2onc(n2)c3cccc(NC(=O)Cc4ccc(F)cc4)c3] showed a viability at 10 µM of 53%.
`O=C(NC1=NCCS1)c1sc2cc(F)ccc2c1Cl` [MMV676584, Fc1ccc2c(Cl)c(sc2c1)C(=O)NC3=NCCS3] was tested, and the viability at 10 µM was 82%.
